According to US6113941A, “Substained release microcapsule of physiologically active compound which is slightly water soluble at pH 6 to 8” (Takeda Chemical Industries, Ltd., priority 1994, dated 2000):

Key:
[1] = Solubility of Compound A at the pH in the small intestine (stated in words); type: physicochemical
[2] = Oral administration to rats, plasma concentration and absorption ratio (Example 1, Table 1); type: in vivo; conditions: rat, SD-strain male rats, 20 mg/kg, suspended in 0.5% methylcellulose
Method: The antiulcer drug 2-[[[3-methyl-4-(2,2,3,3,-tetrafluoropropoxy)-2-pyridyl]methyl]thio]benzimidazole (hereinafter sometimes referred to as Compound A) (400 mg) and lactic acid/glycollic acid copolymer (lactic acid/glycollic acid=50/50, average molecular weight calculated as polystyrene=5400) (3.6 g) were dissolved in dichloromethane (5 ml) to prepare an o/w type emulsion using a homogenizer in an aqueous solution (800 ml) of 0.1% polyvinyl alcohol (PVA). Then, the emulsion was slowly stirred with a conventional propeller stirrer. After dichloromethane vaporized and the microcapsules hardened, the microcapsules were collected by centrifugation and at the same time washed with purified water. The collected microcapsules were freeze-dried for a day to obtain powdery microcapsules.
The drug content in the total amount of the microcapsules was 10.0%, and the entrapment was 100%. The microcapsules were suspended in 0.5% methylcellulose, and orally administered to SD-strain male rats (body weight: 250 g) in a dose of 20 mg/kg. A suspension of the drug alone in 0.5% methylcellulose was also administered for comparison. In both cases, the plasma concentration of the drug and the absorption ratio were determined.

[3] = Oral administration to rats, plasma concentration and absorption ratio (Example 2, Table 2); type: in vivo, SD-strain male rats; conditions: rat, 20 mg/kg
Method: From this emulsion, a w/o/w type emulsion was prepared using a homogenizer in 0.5% PVA aqueous solution (1000 ml). Then, the emulsion was slowly stirred with a conventional propeller stirrer for 3 hours. After dichloromethane vaporized while w/o type microcapsules hardened, the microcapsules were centrifuged and collected and at the same time washed with purified water. The collected microcapsules were freeze-dried for a day to obtain powdery microcapsules.
The microcapsules were suspended in 0.5% methylcellulose, and orally administered to SD-strain male rats (body weight: 250 g) in a dose of 20 mg/kg. For comparative purposes, a suspension of the drug alone in 0.5% methylcellulose was also administered. In both cases, the plasma concentration of the drug and the absorption ratio were determined.

[4] = pH no higher than 3; cited from earlier work

Row | solubility [1] | Fa ([2]; in vivo) [%] | Cmax ([2]; plasma, read-out: Cmax (peak blood level)) [ng/mL] | Tmax ([2]; plasma, read-out: Tmax (time required to obtain the peak blood level)) [min] | Fa ([3]; in vivo) [%] | Cmax ([3]; plasma) [ng/mL] | Tmax ([3]; plasma) [min] | SMILES | solubility in water [4]
1 | very low solubility | 5.4 | 218 | 15 | 5.4 | 218 | 15 | Cc1c(OCC(F)(F)C(F)F)ccnc1CSc1nc2ccccc2[nH]1 [Compound A, 2-[[[3-methyl-4-(2,2,3,3,-tetrafluoropropoxy)-2-pyridyl]methyl]thio]benzimidazole] | –
2 | – | – | – | – | – | – | – | COc1ccc2c(c1)c(CC(=O)O)c(C)n2C(=O)c1ccc(Cl)cc1 [indomethacin] | not readily soluble
